Legend:
Assay in all cases: Bliss excess, mean over the matrix (fraction); higher = more synergy
[1] = tested on: SK-LU-1 (Lung Adenocarcinoma)
Summary of the method: (§1)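 Cell lines grown in DMEM/F12 or RPMI with 10% FBS were plated in 1536-well plates and held 24 hours at 37°C, 5% CO2 before 72 hours of exposure to two-drug dose matrices, with DMSO typically at 0.2%. CellTiter-Glo 2.0 luminescence gave viability, which was converted to inhibition. Vehicle wells were set to 0 and blank wells to 1. Combination Emax is the second-highest inhibition in the matrix, and Bliss excess is the observed combination effect minus the expected EA + EB − EA·EB, where EA and EB are the single-agent effects.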

[2] = tested on: COLO-668 (Small Cell Lung Carcinoma)
Summary of the method: as §1

[3] = tested on: SNU-387 (Hepatocellular Carcinoma)
Summary of the method: as §1

[4] = tested on: G-401 (Other Solid Carcinomas)
Summary of the method: as §1

[5] = tested on: CADO-ES1 (Ewing's Sarcoma)
Summary of the method: as §1

[6] = tested on: MOG-G-UVW (Low Grade Glioma)
Summary of the method: as §1

[7] = tested on: KOPN-8 (B-Lymphoblastic Leukemia)
Summary of the method: as §1

[8] = tested on: NCI-H1993 (Lung Adenocarcinoma)
Summary of the method: as §1

[9] = tested on: MDA-MB-453 (Breast Carcinoma)
Summary of the method: as §1

[10] = tested on: EFO-21 (Ovarian Carcinoma)
Summary of the method: as §1

[11] = tested on: NCI-H2122 (Lung Adenocarcinoma)
Summary of the method: as §1

[12] = tested on: A4-Fuk (B-Lymphoblastic Leukemia)
Summary of the method: as §1

[13] = tested on: LC-1-sq (Squamous Cell Lung Carcinoma)
Summary of the method: as §1

[14] = tested on: ALL-SIL (T-Lymphoblastic Leukemia)
Summary of the method: as §1

[15] = tested on: NCI-H1355 (Lung Adenocarcinoma)
Summary of the method: as §1

EW-1 (Ewing's Sarcoma) = tested on: EW-1 (Ewing's Sarcoma)
Summary of the method: as §1

[16] = tested on: SKN (Other Solid Carcinomas)
Summary of the method: as §1

[17] = tested on: EJM (Plasma Cell Myeloma)
Summary of the method: as §1

[18] = tested on: DU-145 (Prostate Carcinoma)
Summary of the method: as §1

[19] = tested on: OACM5-1 (Esophageal Adenocarcinoma)
Summary of the method: as §1

Structure (SMILES) | Bliss excess [1] | Bliss excess [2] | Bliss excess [3] | Bliss excess [4] | Bliss excess [5] | Bliss excess [6] | Bliss excess [7] | Bliss excess [8] | Bliss excess [9] | Bliss excess [10] | Bliss excess [11] | Bliss excess [12] | Bliss excess [13] | Bliss excess [14] | Bliss excess [15] | Bliss excess (EW-1 (Ewing's Sarcoma)) | Bliss excess [16] | Bliss excess [17] | Bliss excess [18] | Bliss excess [19]
CN(C)CCCOc1ccc(-c2ccc3ncc4c(c3c2)n(C2CCOCC2)c(=O)n4C)cn1 [AZD0156] + C=CCn1c(=O)c2cnc(Nc3ccc(N4CCN(C)CC4)cc3)nc2n1-c1cccc(C(C)(C)O)n1 [AZD1775] (first compound max 1 µM, partner max 1 µM) | -0.0264 | -0.039 | -0.054 | -0.0734 | 0.0196 | -0.0525 | -0.0256 | -0.0699 | -0.0736 | -0.0369 | 0.0551 | -0.0274 | -0.0248 | -0.0205 | -0.0472 | -0.0281 | -0.0548 | -0.0266 | -0.0236 | -0.051
Cc1c2c(nn1C)CSCc1cc(n(C)n1)CSc1cc(c3ccccc3c1)OCCCc1c(C(=O)O)n(C)c3c-2c(Cl)ccc13 [AZD5991] + C[C@@H](Nc1cc(F)cc(F)c1)c1cc(C(=O)N(C)C)cc2c(=O)cc(N3CCOCC3)oc12 [AZD8186] (first compound max 1 µM, 7x7, partner max 3 µM) | 0.0004 | -0.0011 | -0.0089 | -0.0579 | -0.0479 | -0.0451 | 0.0014 | 0.0246 | -0.0506 | -0.0522 | 0.0684 | -0.023 | 0.0352 | -0.0301 | -0.064 | -0.0431 | -0.0142 | -0.0129 | -0.0204 | 0.0078
COc1nnc2ccc(N3CCC(c4ccc(OCCN5CCN(C)C(=O)[C@H]5C)cc4)CC3)nn12 [AZD5153] + Cc1c2c(nn1C)CSCc1cc(n(C)n1)CSc1cc(c3ccccc3c1)OCCCc1c(C(=O)O)n(C)c3c-2c(Cl)ccc13 [AZD5991] (first compound max 1 µM, 7x7, partner max 1 µM) | -0.061 | 0.0265 | -0.0082 | 0.0312 | 0.0176 | -0.0387 | 0.0112 | -0.0106 | 0.0437 | -0.0428 | -0.0402 | -0.044 | 0.0198 | 0.041 | -0.0274 | 0.0165 | -0.058 | 0.0564 | -0.021 | 0.0114
CN(C)CCCOc1ccc(-c2ccc3ncc4c(c3c2)n(C2CCOCC2)c(=O)n4C)cn1 [AZD0156] + O=C(c1cc(Cc2n[nH]c(=O)c3ccccc23)ccc1F)N1CCN(C(=O)C2CC2)CC1 [Olaparib] (first compound max 3 µM, partner max 3 µM) | -0.017 | -0.0077 | 0.0072 | 0.0269 | 0.285 | 0.204 | 0.31 | -0.0191 | -0.0266 | -0.0149 | 0.109 | 0.0383 | -0.0374 | 0.0281 | 0.0176 | 0.231 | 0.0023 | 0.0719 | -0.0462 | -0.0162
NC1(C(=O)N[C@@H](CCO)c2ccc(Cl)cc2)CCN(c2ncnc3[nH]ccc23)CC1 [Capivasertib] + CC(=O)c1c(C)c2cnc(Nc3ccc(N4CCNCC4)cn3)nc2n(C2CCCC2)c1=O [Palbociclib] (first compound max 10 µM, 7x7, partner max 10 µM) | -0.0139 | -0.0496 | -0.0515 | -0.009 | -0.0849 | 0.0666 | -0.0079 | 0.0642 | 0.0753 | -0.0533 | 0.0338 | -0.0374 | -0.0208 | -0.0889 | 0.0107 | -0.0124 | -0.0383 | -0.0189 | -0.0272 | -0.0299

— the supplement of paper PMC11061612
